This assay relates to voltage operated calcium channels (P- and L-type), rat synaptosomes. In words: 45Ca influx into rat synaptosomes under depolarized conditions. The format is biochemical, rat (male Wistar). Conditions: depolarization induced 45Ca uptake, rat cortex synaptosomes. An excerpt:
A high influx of calcium from extracelluar compartments into neurons is seen after opening of voltage operated calcium channels. Such opening of calcium channels may be induced by depolarization of neuronal membranes. A crude synaptosome preparation contains small vesicles surrounded by neuronal membranes, and it is possible to study an opening of the voltage operated calcium channels in such a preparation. In the below described test influx of ^45 Ca into rat synaptosomes is studied under depolarized conditions. The effect of test substances on the depolarization induced calcium uptake can thus be studied.
The compounds of the present invention which potently block the calcium influx of up to 20 to 40% in this test are believed to be blockers of predominantly the P-type of calcium channels and the compounds of the present invention, which at somewhat higher concentrations block the calcium influx more completely or totally, are believed to be both P- and L-type calcium channel blockers, or predominantly L-type of calcium channel blockers.
The cerebral cortex from a male Wistar rat is homogenized in 20 ml ice cold 0.32M saccharose. In the following steps the temperature is kept at 0° C. to 4° C. The homogenate is centrifuged at 1,000×g for 10 minutes and the supernatant recentrifuged for 20 minutes at 18,000×g. The obtained pellet is resuspended in 0.32M saccharose (10 ml per g of original tissue). Aliquots of 0.05 ml of the hereby obtained synaptosome suspension are added to glass tubes containing 0.625 ml of a NaCl buffer (136 mM NaCl, 4 mM KCl, 0.35 mM CaCl2, 1.2 mM MgCl2, 20 mM Tris HCl, 12 mM glucose, pH 7.4) as well as 0.025 ml of different test substances in 48% ethanol. These tubes are pre-incubatedfor 30 minutes on ice and thereafter for 6 minutes at 37° C. ^45 Ca uptake is initiated by addition to above glass-tubes of 0.4 ml ^45 CACl2 (specific activity: 29-39 Ci/g; […]). […] The radioactivity on the filters are measured by liquid scintillation spectrometry. […]

The IC50 is the concentration needed to halve the response being measured.

Turning to `Fc1ccc2c(c1)ncn2-c1ccc(I)cc1` [1-(4-iodophenyl)-5-fluoro-benzimidazole], the IC50 is 7 µM.

For the compound `FC(F)(F)c1ccc2c(c1)ncn2-c1cccc(-c2ccsc2)c1` [1-[3-(3-thienyl)phenyl-5-trifluoromethyl]-benzimidazole], the IC50 was 3.4 µM.

Regarding `Nc1cccc(-c2cccc(-n3cnc4cc(C(F)(F)F)ccc43)c2)c1` [1-[3-(3-aminophenyl)-phenyl]-5-trifluoromethyl-benzimidazole], the IC50 amounted to 14 µM.
